Ten molecules from US20220089598A1, “INHIBITORS OF HUMAN IMMUNODEFICIENCY VIRUS REPLICATION” (VIIV HEALTHCARE UK (No. 5) LIMITED, priority 2018, published 2022) can be followed below.

Data set [1] deals with recombinant NL4-3 virus (Renilla luciferase) in MT-2 cells. The data set can be described thus: HIV cell culture assay (antiviral activity, luciferase readout). It is filed as cell-based. The following applies: Renilla, NL43. As to the method:
HIV cell culture assay—MT-2 cells, 293T cells and the proviral DNA clone of NL4-3 virus were obtained from the NIH AIDS Research and Reference Reagent Program. MT-2 cells were propagated in RPMI 1640 media supplemented with 10% heat inactivated fetal bovine serum (FBS), 100 μg/ml penicillin G and up to 100 units/mL streptomycin. The 293T cells were propagated in DMEM media supplemented with 10% heat inactivated FBS, 100 μg/mL penicillin G and 100 μg/mL streptomycin. A recombinant NL4-3 proviral clone, in which a section of the nef gene was replaced with the Renilla luciferase gene, was used to make the reference virus used in these studies. The recombinant virus was prepared through transfection of the recombinant NL4-3 proviral clone into 293T cells using Transit-293 Transfection Reagent from Mirus Bio LLC (Madison, Wis.). Supernatent was harvested after 2-3 days and the amount of virus present was titered in MT-2 cells using luciferase enzyme activity as a marker by measuring luciferase enzyme activity. Luciferase was quantitated using the EnduRen Live Cell Substrate from Promega (Madison, Wis.). Antiviral activities of compounds toward the recombinant virus were quantified by measuring luciferase activity in MT-2 cells infected for 4-5 days with the recombinant virus in the presence of serial dilutions of the compound.
The 50% effective concentration (EC50) was calculated by using the exponential form of the median effect equation where (Fa)=1/[1+(ED50/drug conc.)m] (Johnson V A, Byington R T. Infectivity Assay. In Techniques in HIV Research. ed. Aldovini A, Walker B D. 71-76. New York: Stockton Press. 1990).

Data set [2] in a line: Compound cytotoxicity, XTT-based colorimetric assay. Format: cell-based. The conditions noted are these: human; uninfected MT2 cells, day 4, XTT assay. As to the method: Compound cytotoxicity and the corresponding CC50 values were determined using the same protocol as described in the antiviral assay except that uninfected cells were used. Cytotoxicity was assessed on day 4 in uninfected MT2 cells by using a XTT (2,3-bis[2-Methoxy-4-nitro-5-sulfophenyl]-2H-tetrazolium-5-carboxyanilide inner salt)-based colorimetric assay (Sigma-Aldrich, St Louis, Mo.).
(In general: Tetrazolium assays rely on reduction of a dye to a coloured formazan, in cell work by metabolically active cells.)

On to `CS(=O)(=O)Nc1nn(CC(F)(F)F)c2c(-n3c([C@H](Cc4cc(F)cc(F)c4)NC(=O)Cn4nc(C(F)(F)F)c5c4C(F)(F)[C@@H]4C[C@H]54)nc4nc(-c5ccccc5F)ccc4c3=O)ccc(Cl)c12` (atropisomer, axis not shown; (P)) [Example 11, N—((S)-1-((3P)-3-(4-chloro-3-(methylsulfonamido)-1-(2,2,2-trifluoroethyl)-1H-indazol-7-yl)-7-(2-fluorophenyl)-4-oxo-3,4-dihydropyrido[2,3-d]pyrimidin-2-yl)-2-(3,5-difluorophenyl)ethyl)-2-((3bS,4aR)-5,5-difluoro-3-(trifluoromethyl)-3b,4,4a,5-tetrahydro-1H-cyclopropa[3,4]cyclopenta[1,2-c]pyrazol-1-yl)acetamide], for which the EC50 in data set [1] worked out at 150 pM. Also, in data set [2], the CC50 at 4 day is above 100000 pM.
The corresponding values for `Cn1nc(NS(C)(=O)=O)c2c(Cl)ccc(-n3c([C@H](Cc4cc(F)cc(F)c4)NC(=O)Cn4nc(C(F)F)c5c4C(F)(F)[C@@H]4C[C@H]54)nc4nc(-c5cc(F)c(F)c(F)c5)ccc4c3=O)c21` (atropisomer, axis not shown; (P)) [Example 12, N—((S)-1-((3P)-3-(4-chloro-1-methyl-3-(methylsulfonamido)-1H-indazol-7-yl)-4-oxo-7-(3,4,5-trifluorophenyl)-3,4-dihydropyrido[2,3-d]pyrimidin-2-yl)-2-(3,5-difluorophenyl)ethyl)-2-((3bS,4aR)-3-(difluoromethyl)-5,5-difluoro-3b,4,4a,5-tetrahydro-1H-cyclopropa[3,4]cyclopenta[1,2-c]pyrazol-1-yl)acetamide] are 210 pM and above 100000 pM.
For `Cn1nc(NS(C)(=O)=O)c2c(Cl)ccc(-n3c([C@H](Cc4cc(F)cc(F)c4)NC(=O)Cn4nc(C(F)F)c5c4C(F)(F)[C@@H]4C[C@H]54)nc4nc(-c5ccc(C(F)(F)F)cc5)ccc4c3=O)c21` (atropisomer, axis not shown; (P)) [Example 14, N—((S)-1-((3P)-3-(4-chloro-1-methyl-3-(methylsulfonamido)-1H-indazol-7-yl)-4-oxo-7-(4-(trifluoromethyl)phenyl)-3,4-dihydropyrido[2,3-d]pyrimidin-2-yl)-2-(3,5-difluorophenyl)ethyl)-2-((3bS,4aR)-3-(difluoromethyl)-5,5-difluoro-3b,4,4a,5-tetrahydro-1H-cyclopropa[3,4]cyclopenta[1,2-c]pyrazol-1-yl)acetamide] the same measures were 84 pM and above 100000 pM.
For the molecule `Cn1nc(NS(C)(=O)=O)c2c(Cl)ccc(-n3c([C@H](Cc4cc(F)cc(F)c4)NC(=O)Cn4nc(C(F)F)c5c4C(F)(F)[C@@H]4C[C@H]54)nc4nc(-c5ccc(F)c(F)c5F)ccc4c3=O)c21` (atropisomer, axis not shown; (P)) [Example 15, N—((S)-1-((3P)-3-(4-chloro-1-methyl-3-(methylsulfonamido)-1H-indazol-7-yl)-4-oxo-7-(2,3,4-trifluorophenyl)-3,4-dihydropyrido[2,3-d]pyrimidin-2-yl)-2-(3,5-difluorophenyl)ethyl)-2-((3bS,4aR)-3-(difluoromethyl)-5,5-difluoro-3b,4,4a,5-tetrahydro-1H-cyclopropa[3,4]cyclopenta[1,2-c]pyrazol-1-yl)acetamide], the EC50 in data set [1] was 35 pM. This molecule also yielded a CC50 at 4 day in data set [2] above 100000 pM.
The corresponding values for `Cn1nc(NS(C)(=O)=O)c2c(Cl)ccc(-n3c([C@H](Cc4cc(F)cc(F)c4)NC(=O)Cn4nc(C(F)F)c5c4C(F)(F)[C@@H]4C[C@H]54)nc4nc(-c5ccc(F)cc5CO)ccc4c3=O)c21` (atropisomer, axis not shown; (P)) [Example 16, N—((S)-1-((3P)-3-(4-chloro-1-methyl-3-(methylsulfonamido)-1H-indazol-7-yl)-7-(4-fluoro-2-(hydroxymethyl)phenyl)-4-oxo-3,4-dihydropyrido[2,3-d]pyrimidin-2-yl)-2-(3,5-difluorophenyl)ethyl)-2-((3bS,4aR)-3-(difluoromethyl)-5,5-difluoro-3b,4,4a,5-tetrahydro-1H-cyclopropa[3,4]cyclopenta[1,2-c]pyrazol-1-yl)acetamide] are 56 pM and above 500000 pM.
For `Cn1nc(NS(C)(=O)=O)c2c(Cl)ccc(-n3c([C@H](Cc4cc(F)cc(F)c4)NC(=O)Cn4nc(C(F)(F)F)c5c4C(F)(F)[C@@H]4C[C@H]54)nc4nc(-c5ccccc5F)ccc4c3=O)c21` (atropisomer, axis not shown; (P)) [Example 17, N—((S)-1-((3P)-3-(4-chloro-1-methyl-3-(methylsulfonamido)-1H-indazol-7-yl)-7-(2-fluorophenyl)-4-oxo-3,4-dihydropyrido[2,3-d]pyrimidin-2-yl)-2-(3,5-difluorophenyl)ethyl)-2-((3bS,4aR)-5,5-difluoro-3-(trifluoromethyl)-3b,4,4a,5-tetrahydro-1H-cyclopropa[3,4]cyclopenta[1,2-c]pyrazol-1-yl)acetamide] the same measures were 65 pM and above 100000 pM.
Take `Cn1nc(NS(C)(=O)=O)c2c(Cl)ccc(-n3c([C@H](Cc4cc(F)cc(F)c4)NC(=O)Cn4nc(C(F)F)c5c4C(F)(F)[C@@H]4C[C@H]54)nc4nc(-c5ccc(F)cc5)ccc4c3=O)c21` (atropisomer, axis not shown; (P)) [Example 18, N—((S)-1-((3P)-3-(4-chloro-1-methyl-3-(methylsulfonamido)-1H-indazol-7-yl)-7-(4-fluorophenyl)-4-oxo-3,4-dihydropyrido[2,3-d]pyrimidin-2-yl)-2-(3,5-difluorophenyl)ethyl)-2-((3bS,4aR)-3-(difluoromethyl)-5,5-difluoro-3b,4,4a,5-tetrahydro-1H-cyclopropa[3,4]cyclopenta[1,2-c]pyrazol-1-yl)acetamide]: in data set [1], the EC50 was found to be 36 pM. Besides, the CC50 at 4 day in data set [2] was above 100000 pM.
`Cn1nc(NS(C)(=O)=O)c2c(Cl)ccc(-n3c([C@H](Cc4cc(F)cc(F)c4)NC(=O)Cn4nc(C(F)F)c5c4C(F)(F)[C@@H]4C[C@H]54)nc4nc(-c5ccc(F)cc5S(C)(=O)=O)ccc4c3=O)c21` (atropisomer, axis not shown; (P)) [Example 19, N—((S)-1-((3P)-3-(4-chloro-1-methyl-3-(methylsulfonamido)-1H-indazol-7-yl)-7-(4-fluoro-2-(methylsulfonyl)phenyl)-4-oxo-3,4-dihydropyrido[2,3-d]pyrimidin-2-yl)-2-(3,5-difluorophenyl)ethyl)-2-((3bS,4aR)-3-(difluoromethyl)-5,5-difluoro-3b,4,4a,5-tetrahydro-1H-cyclopropa[3,4]cyclopenta[1,2-c]pyrazol-1-yl)acetamide]: the EC50 in data set [1] amounted to 120 pM. In data set [2], this molecule returned a CC50 at 4 day above 500000 pM.
The corresponding values for `Cn1nc(NS(C)(=O)=O)c2c(Cl)ccc(-n3c([C@H](Cc4cc(F)cc(F)c4)NC(=O)Cn4nc(C(F)F)c5c4C(F)(F)[C@@H]4C[C@H]54)nc4nc(-c5cc(F)cc(F)c5)ccc4c3=O)c21` (atropisomer, axis not shown; (P)) [Example 21, N—((S)-1-((3P)-3-(4-chloro-1-methyl-3-(methylsulfonamido)-1H-indazol-7-yl)-7-(3,5-difluorophenyl)-4-oxo-3,4-dihydropyrido[2,3-d]pyrimidin-2-yl)-2-(3,5-difluorophenyl)ethyl)-2-((3bS,4aR)-3-(difluoromethyl)-5,5-difluoro-3b,4,4a,5-tetrahydro-1H-cyclopropa[3,4]cyclopenta[1,2-c]pyrazol-1-yl)acetamide] are 80 pM and above 100000 pM.
For `Cn1nc(NS(C)(=O)=O)c2c(Cl)ccc(-n3c([C@H](Cc4cc(F)cc(F)c4)NC(=O)Cn4nc(C(F)F)c5c4C(F)(F)[C@@H]4C[C@H]54)nc4nc(-c5ccc(F)c(Cl)c5F)ccc4c3=O)c21` (atropisomer, axis not shown; (P)) [Example 22, N—((S)-1-((3P)-3-(4-chloro-1-methyl-3-(methylsulfonamido)-1H-indazol-7-yl)-7-(3-chloro-2,4-difluorophenyl)-4-oxo-3,4-dihydropyrido[2,3-d]pyrimidin-2-yl)-2-(3,5-difluorophenyl)ethyl)-2-((3bS,4aR)-3-(difluoromethyl)-5,5-difluoro-3b,4,4a,5-tetrahydro-1H-cyclopropa[3,4]cyclopenta[1,2-c]pyrazol-1-yl)acetamide] the same measures were 100 pM and above 100000 pM.

Usually EC50 stands for the concentration at which the effect is half-maximal. One may read the CC50 as the concentration giving 50% cytotoxicity. A lower CC50 goes with greater toxicity to the cells.
